Assays:
[1] = tested on: male mice exposed to total body irradiation (TBI); test: Phase 2 efficacy: survival of mice dosed prior to total body irradiation (TBI) at LD100/30; type: in vivo; conditions: for median survival time / animals survived until scheduled sacrifice (Day 30) / mice found dead / mice moribund sacrificed: 1000 mg/kg oral gavage prior to TBI 9.9 Gy; for median survival time: 11 male mice per group; for body weight gain: Days 5 to 9 after TBI 9.9 Gy, compared to the vehicle group; for survival of animals through 30 days post exposure: treated prior to total body irradiation (LD100/30)
Description: (§1) Male mice were randomized and assessed in two phases: 1) for maximum tolerated doses (MTDs) of PrC-210, DzCH2SH, and 2Pip-2PrSH to determine dose levels for the efficacy study and 2) to evaluate the efficacy of the compounds when administered 60+5 minutes prior to exposure to total body irradiation (TBI) at an LD100/30 dose (990 cGy) (Tables 1 and 2).
(§2) For Phase 1 or 2, sterile water (vehicle), PrC-210, DzCH2SH, and 2Pip2PrSH were administered at 10 mL/kg calculated based on the most recent body weight via oral gavage. Animals were not fasted prior to administration of the compounds or vehicle. Mice in Phase 1 were administered the dose on Day 1 and mice in Phase 2 were administered the dose 60+5 minutes prior to TBI on Day 0.
Irradiation was administered once to the whole body. TBI of mice were performed using a 6 MV LINAC photon source (TrueBeam STx source). Animals were irradiated at a dose rate of up to 80 cGy/min to the midline of the animals. The source irradiated animals to 50% of the dose from anterior-posterior direction and […] from the posterior-anterior direction. Dose measurements were performed with a PTW 31010 0.1 cc Semiflex Ion chamber.
(§3) All surviving animals were observed once daily for clinical signs (e.g., unusually low or high activity, lethargy, shivering, appearance of fur, bloody and water stool, and other symptoms of moribundity) at 1-2 hours post-irradiation and/or post-dose and once daily on non-dosing days until Day 4 (Phase 1) or Day 30 (Phase 2).
In Phase 2 (Table 2), survival curves of mice treated with vehicle, PrC-210, DzCH2SH or 2Pip-PrSH prior to TBI with 9.9 Gy were measured (FIG. 1). […] Five mice were moribund sacrificed, and 6 mice were found dead. Survival in the Group 13 animals was 0% and median survival time was 8 days. In mice administered with PrC-210 before TBI (Group 14), 4 animals survived until scheduled sacrifice (Day 30) while 7 mice were moribund sacrificed. […] In mice administered with DzCH2SH before TBI (Group 15), 3 animals survived until scheduled sacrifice (Day 30) while 7 mice were moribund sacrificed, and one mouse was found dead. […] Five mice were moribund sacrificed and six mice were found dead. Survival in the Group 16 mice was 0% and median survival time was 10 days.

[2] = Phase 1 maximum tolerated dose (MTD) in mice, oral gavage; type: in vivo; conditions: 1,000 mg/kg, male mice
Description: as §1, §2, §3
In Phase 1 (Table 1), all animals were normal when observed and all body weights were within normal range. The dose level of 1000 mg/kg was selected for Phase 2.

[3] = Exposure of the solid salt to the atmosphere (hygroscopicity); type: physicochemical; conditions: 10 minute exposure of a small amount to the atmosphere, diHCl salt
Description: Concentration (rotary evaporator at ambient temperature) provided a crude oily residue which was triturated with hexane producing a white solid. The hexane was removed (via pipette suction) and replaced with dry THE (25 ml). After an additional 10 minutes of trituration, the THF was removed and replaced with dry hexane (25 ml). After an additional 10 minutes of trituration, the hexane was removed and the resulting white solid was dried in vacuo over P2O5 providing 1.95 grams of diHCl salt of PrC-210 (88%).
In Reaction J: 34 ml of HCl in methanol, 6 eq. (1.25 M solution, Aldrich Cat #17935) was added to a solution of compound X, 2.5 grams, 0.007 moles dissolved in 10 mL dry methanol in a flask under argon and equipped for magnetic stirring and the reaction was stirred at room temperature for 24 hours. […] The solution was degassed by gently bubbling argon into the solution for 30 minutes. […]
In Reaction P: Compound XVI, 2.2 grams, 0.0058 moles was placed in a round-bottom flask equipped for magnetic stirring followed by 15 mL anhydrous trifluoroacetic acid (CF3COOH, Aldrich #8.08260). The flask was fitted with a condenser and the solution was refluxed for 5 hours whereupon it was determined that the reaction was complete using TLC by observing the disappearance of starting material and the appearance of a highly polar product, which stained positive with ninhydrin. […]

[4] = in vivo; cited from earlier work
[5] = tested on: mice exposed to whole body irradiation; test: Radiation dose required to kill 50% of mice (LD50), whole body irradiation; type: in vivo; conditions: oral gavage 60 minutes prior to whole body irradiation 2-12 Gy, 30 days
Description: The affect of the compounds according to the disclosure on the dose of radiation required to kill 50% of mice (LD50) is assessed.
Mice are assigned to three groups (Groups 1, 2 and 3). A control group, Group 1, is treated via oral gavage with vehicle (Lactated Ringer's and 5% dextrose, adjusted to pH 7.3 with sodium bicarbonate) 60 minutes prior to whole body irradiation (2 Gy). Group 2 is treated via oral gavage with PrC-210, as a positive control, dissolved in Lactated Ringer's at a dose of 200 mg/kg 60 minutes prior to whole body irradiation (2 Gy). Group 3 is treated via oral gavage with compound 1 (PrC-210-PT) dissolved in Lactated Ringer's at a dose of 308 mg/kg 60 minutes prior to whole body irradiation (2 Gy). The mortality of the three groups is assessed for 30 days post irradiation.
The experiment is repeated using varying radiation doses of 4, 6, 8, 10 and 12 Gy. The LD50 for each group was determined.
The experiment is repeated to assess compounds 2-23 as radioprotectors.

[6] = tested on: mice exposed to 8 Gy (LD100) radiation; test: Protection of mice from lethal radiation (8 Gy, LD100); type: in vivo; conditions: oral gavage 15-90 minutes prior to 8 Gy (LD100), 60 days post irradiation
Description: The radioprotective efficacy of the thiols, prodrugs and double prodrugs according to this disclosure is assessed in mice. The compounds of the disclosure are administered via oral gavage to mice, and are compared to mice that have been administered 3-(methylamino)-2-(methylaminomethyl)propane-1-thiol (PrC-210), as well as to a control group or mice that are administered vehicle (i.e., containing no radioprotective additive).
More specifically, mice are assigned to three groups (Groups 1, 2 and 3). A control group, Group 1, is treated via oral gavage with vehicle (Lactated Ringer's and 5% dextrose, adjusted to pH 7.3 with sodium bicarbonate) 15-90 minutes prior to a dose of 8 Gy (LD100) radiation. Group 2 is treated via oral gavage with PrC-210, as a positive control, dissolved in Lactated Ringer's at a dose of 200 mg/kg 15-90 minutes prior to irradiation with 8 Gy (LD100). Group 3 is treated via oral gavage with compound 1 (PrC-210-PT) dissolved in Lactated Ringer's at a dose of 308 mg/kg 15-90 minutes prior to irradiation with 8 Gy (LD100). The mortality of the three groups is assessed for 60 days post irradiation. The experiment is repeated with doses of PrC-210 ranging from 200 mg/kg to 450 mg/kg. Molar equivalent dosages of the test compound (compound 1, Prc-210-PT) to PrC-210 are also assessed.
The experiment is repeated to assess the efficacy of compounds 2-23 as radioprotectors.

[7] = clinical signs after TBI 9.9 Gy, of 11 mice

| SMILES | median survival time [1] | animals survived until scheduled sacrifice (Day 30) ([1]; of 11 mice) | mice found dead ([1]; of 11 mice) | mice moribund sacrificed ([1]; of 11 mice) | body weight gain [1] | Cold to touch skin, number of animals [1, 7] | Eye discharge, number of animals [1, 7] | Hypoactivity, number of animals [1, 7] | Lethargy and swollen head, number of mice [1, 7] | Swollen eye, number of animals [1, 7] | toxicity at the highest tested dose [2] | signs of hygroscopicity [3] | survival of animals through 30 days post exposure [1] | also measured |
| --- | --- | --- | --- | --- | --- | --- | --- | --- | --- | --- | --- | --- | --- | --- |
| CC(C)(S)C1CNCCN1 (stereo not drawn) [Compound 2Pip-2PrSH, 2-(piperazin-2-yl)propane-2-thiol] | 10 days | no animals survived | six | Five | did not gain body weights | 4 | one | 5 | one | one | did not produce any toxicity | – | – | Survival ([1]; 1000 mg/kg oral gavage 60+5 minutes prior to TBI 9.9 Gy (LD100/30), Day 30, 11 male mice per group): 0% |
| SCC1CNCCNC1 [DzCH2SH, (1,4-diazepan-6-yl)methanethiol] | 11 days | 3 | one | 7 | did not gain body weights | one | 2 | 5 | one | 2 | did not produce any toxicity | did not show any signs of hygroscopicity | increased survival | mortality rate at 8-days post-irradiation ([1]; 1000 mg/kg oral gavage prior to TBI 990 cGy): efficacious effects; Eye opacity, number of mice [1, 7]: one; Labored breathing, number of mice [1, 7]: one; eye cloudy, number of animals [1, 7]: 2; sunken eye, number of animals [1, 7]: 1 |
| CNCC(CS)CNC [PrC-210, 3-(methylamino)-2-((methylamino)methyl)propane-1-thiol, reference compound] | 11 days | 4 | – | 7 | significantly higher | – | one | 5 | – | one | did not produce any toxicity | did not show any signs of hygroscopicity | increased survival | side effects compared with Amifostine [4]: less side effects than Amifostine; LD50 (radiation dose), control group versus treated mice [5]: control group demonstrates a lower LD50 compared to the mice treated; rate of survival, control group versus treated mice [6]: control group demonstrates a reduced rate of survival compared to the mice treated; mean body weight ([1]; Day 9 after TBI 9.9 Gy): higher than body weights in the Groups 13, 15 and 16; Tremor, number of mice [1, 7]: 4 |
